target: T1, Mer (Homo sapiens, UniProt Q12866); assay: Mer autophosphorylation ELISA in transient transfected 293A cells; assay type: cell-based; conditions: Table 3 Cellular Activities; MERTK-transfected 293A cells, phospho-Mer ELISA
T1 construct: host or cells: 293A cells (Thermo Fisher #R70507)
T1 sequence (Q12866 21-999): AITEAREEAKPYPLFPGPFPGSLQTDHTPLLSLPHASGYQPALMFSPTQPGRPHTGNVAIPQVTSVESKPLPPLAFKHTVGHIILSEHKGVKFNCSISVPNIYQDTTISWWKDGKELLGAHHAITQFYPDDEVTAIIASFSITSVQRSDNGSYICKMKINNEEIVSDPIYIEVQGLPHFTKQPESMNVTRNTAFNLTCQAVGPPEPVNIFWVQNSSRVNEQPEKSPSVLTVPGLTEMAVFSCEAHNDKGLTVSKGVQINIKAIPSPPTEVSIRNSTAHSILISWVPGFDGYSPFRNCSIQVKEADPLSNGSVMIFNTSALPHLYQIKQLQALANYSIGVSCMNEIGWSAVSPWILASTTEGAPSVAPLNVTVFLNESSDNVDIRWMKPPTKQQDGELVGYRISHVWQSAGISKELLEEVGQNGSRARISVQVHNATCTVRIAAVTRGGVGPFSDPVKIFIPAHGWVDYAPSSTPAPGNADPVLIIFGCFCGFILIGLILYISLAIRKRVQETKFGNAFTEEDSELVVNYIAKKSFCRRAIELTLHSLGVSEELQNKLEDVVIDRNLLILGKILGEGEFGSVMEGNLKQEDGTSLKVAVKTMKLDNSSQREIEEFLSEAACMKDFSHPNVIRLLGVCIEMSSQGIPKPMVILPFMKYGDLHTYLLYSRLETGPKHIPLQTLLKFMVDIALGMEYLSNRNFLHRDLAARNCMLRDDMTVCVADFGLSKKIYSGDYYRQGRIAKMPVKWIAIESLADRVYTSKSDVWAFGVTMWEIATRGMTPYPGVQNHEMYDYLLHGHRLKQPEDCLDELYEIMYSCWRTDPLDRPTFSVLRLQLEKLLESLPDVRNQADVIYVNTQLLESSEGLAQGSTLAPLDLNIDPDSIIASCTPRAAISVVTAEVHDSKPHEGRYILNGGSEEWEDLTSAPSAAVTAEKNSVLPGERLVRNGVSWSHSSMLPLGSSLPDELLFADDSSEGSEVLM
Method in brief: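 293A cells transiently transfected with human MERTK DNA, replated after 24 h, then treated 1 h with 8-point compound dilutions in serum-free medium (0.3% DMSO). Lysates assayed by phospho-Mer sandwich ELISA against phospho-Mer standard; DMSO = 100%, reference inhibitor = 0% activity; IC50 by 4-parameter logistic fit.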

IC50, ≤ 100 nM:
COc1cnc2c(Oc3ccc(NC(=O)c4ccc(C)n(-c5ccc(F)cn5)c4=O)cc3F)ccnc2c1 [Compound 45, N-[3-Fluoro-4-[(7-methoxy-1,5-naphthyridin-4-yl)oxy]phenyl]-1-(5-fluoropyridin-2-yl)-6-methyl-2-oxopyridine-3-carboxamide]
COc1cc2nccc(Oc3ccc(NC(=O)c4ccc(C)n(-c5ccnc(F)c5)c4=O)cc3F)c2nc1OC [Compound 233, N-[4-[(6,7-Dimethoxy-1,5-naphthyridin-4-yl)oxy]-3-fluorophenyl]-1-(2-fluoropyridin-4-yl)-6-methyl-2-oxopyridine-3-carboxamide]
COc1cc2nccc(Oc3ccc(NC(=O)c4ccc(C)n(-c5ccc(F)cn5)c4=O)cc3F)c2nc1OC [Compound 43, N-[4-[(6,7-Dimethoxy-1,5-naphthyridin-4-yl)oxy]-3-fluorophenyl]-1-(5-fluoropyridin-2-yl)-6-methyl-2-oxopyridine-3-carboxamide]
COc1cnc2c(Oc3ccc(NC(=O)c4c(C)n(C)cc(-c5ccc(F)cn5)c4=O)cc3F)ccnc2c1 [Compound 73, N-[3-Fluoro-4-[(7-methoxy-1,5-naphthyridin-4-yl)oxy]phenyl]-5-(5-fluoropyridin-2-yl)-1,2-dimethyl-4-oxopyridine-3-carboxamide]
COc1cc2nccc(Oc3ccc(NC(=O)c4c5n(cc(-c6cc(C)cs6)c4=O)CCOC5)cc3)c2nc1OC [Compound 303, N-[4-[(6,7-Dimethoxy-1,5-naphthyridin-4-yl)oxy]phenyl]-7-(4-methylthiophen-2-yl)-8-oxo-3,4-dihydro-1H-pyrido[2,1-c][1,4]oxazine-9-carboxamide]
COc1cc2nccc(Oc3ccc(NC(=O)c4cn(C)c(C)c(-c5ccc(F)cn5)c4=O)cc3)c2nc1OC [Compound 86, N-[4-[(6,7-Dimethoxy-1,5-naphthyridin-4-yl)oxy]phenyl]-5-(5-fluoropyridin-2-yl)-1,6-dimethyl-4-oxopyridine-3-carboxamide]
COc1cnc2c(Oc3ccc(NC(=O)c4c(C)nc(C)c(-c5ccc(F)cn5)c4O)cc3F)ccnc2c1 [Compound 217, N-[3-Fluoro-4-[(7-methoxy-1,5-naphthyridin-4-yl)oxy]phenyl]-5-(5-fluoropyridin-2-yl)-4-hydroxy-2,6-dimethylpyridine-3-carboxamide]
COc1cc2nccc(Oc3ccc(NC(=O)c4cccn(-c5ccc(F)cn5)c4=O)cc3F)c2nc1OC [Compound 42, N-[4-[(6,7-Dimethoxy-1,5-naphthyridin-4-yl)oxy]-3-fluorophenyl]-1-(5-fluoropyridin-2-yl)-2-oxopyridine-3-carboxamide]
COc1cc2nccc(Oc3ccc(NC(=O)c4cc(C#N)c(C)n(-c5ccc(F)cn5)c4=O)cc3F)c2nc1OC [Compound 56, 5-Cyano-N-[4-[(6,7-dimethoxy-1,5-naphthyridin-4-yl)oxy]-3-fluorophenyl]-1-(5-fluoropyridin-2-yl)-6-methyl-2-oxopyridine-3-carboxamide]

From patent US20230151003A1, “COMPOUNDS AND METHODS OF USE” (Exelixis, Inc., priority 2020, published 2023)
